Test results from patent US6231894A, “Treatments based on discovery that nitric oxide synthase is a paraquat diaphorase” (Duke University, priority 1999, dated 2001).

Legend:
[1] = tested on: solid tumor; assay: Working Example VII: solid tumor patient; type: in vivo, human; conditions: treatment for seven days
Protocol: A person is given the anti-tumor agent 5,6 dimethylxanthemone-4-acetic acid (5,6 MEXAA) to treat a solid tumor identified by biopsy on the left lower extremity, and lung. […] At this time, the patient is treated with intravenous infusion of paraquat (4 milligram per kilogram) for seven cycles.

[2] = tested on: CPA-47 endothelial cell line; assay: LDH release from endothelial cells (cytotoxicity); type: cell-based; conditions: increasing inhibitor concentrations with 2 mM paraquat, 24 hours; FIG. 2(b)
Protocol: To test whether the above effect was present in intact cells, endothelial cell cultures, constitutively expressing NOS3 protein as determined by western blot analysis, were treated with 2 mM paraquat in the presence of increasing concentrations of either L-NAME or L-NMMA.
The endothelial cells were obtained as follows: CPA-47 endothelial cell line (CRL-1733) was purchased from American Type Culture Collection (Manassas, Va.). Endothelial cells were grown in T-75 flasks containing Ham's F-12 K medium supplemented by 1 mM […] and 10% equine serum (Gibco-BRL, Grand Island, N.Y.). Endothelial cells were plated at 3.5×10^4 cells/well in 24-well plates and experiments were performed 48 hours later when cells were near confluence. Medium was changed to minimal essential medium without serum supplement. Endothelial cells were from passages 30-36.
Cytotoxicity was measured as the percent release of LDH and compared to vehicl-treated cells (basal). The percent release of cytosolic lactate dehydrogenase (LDH) into the culture medium was used to assess the integrity of the cell membrane. LDH activity was measured by following the loss of NADH at 340 nm as described in Day, B. J., et al., J. Pharmacol. Exp. Ther. 275, 1227-1232 (1995). The percent release of LDH into the culture medium 24 hours after the paraquat treatment was used to assess cell injury.

[3] = molecular target: T1, Recombinant rat neuronal nitric oxide synthase (NOS1) (Rattus norvegicus, UniProt P29476); assay: NADPH oxidation (paraquat diaphorase activity) by recombinant rat neuronal nitric oxide synthase; type: biochemical; conditions: NOS inhibitor 1 mM, FIG. 2(a); for effect on paraquat-stimulated NADPH oxidation: 25 μM paraquat; for effect on basal NADPH oxidation: no paraquat
T1 construct: purchased Oxis, Portland, Oreg
Protocol: Recombinant rat neuronal nitric oxide synthase (NOS1, Oxis, Portland, Oreg.), a constitutive enzyme, was used to assay NADPH oxidation in the presence of increasing concentrations of paraquat. Reactions (0.2 ml) were performed in bis-tris propane buffer (40 mM) containing L-arginine (1 mM), CaCl2 (1.2 mM), EDTA (0.9 mM), NADPH (0.35 mM), dithiothreitol (3 mM), tetrahydrobiopterin (4 μM), catalase (1 μg/ml) and calmodulin (200 U/ml) at pH 7.4. Reactions were initiated by the addition of 1.5 U of NOS1, and the oxidation of NADPH was continuously monitored at 340 nm for 1 minute at 37° C. in a plate reader. The rate of NOS-mediated NADPH oxidation was determined using an extinction coefficient of 6.22 mM^-1 cm^-1 after subtracting the baseline of NADPH oxidation.
The experiment of Background Example 1 for NADPH oxidation was carried out in the presence and absence of 25 μM paraquat, without any NOS inhibitor (control), in the presence of L-NAME (1 mM) or in the presence of 1 mM L-NMMA. […] Only L-NAME shut down the NADPH oxidase activity.

[4] = Working Example X: embolic stroke patient; type: in vivo, human; conditions: 10 mg IV bolus followed by 4.5 mg per kilogram per minute; L-NMMA 30 minutes, L-NAME following day
Protocol: A person with middle cerebral arterial embolic stroke presents to the Emergency Room unconscious. […] After 30 minutes the therapy is stopped and they receive L-NAME at the same dose.

[5] = Working Example IV: patient with E. Coli bacteremia; type: in vivo, human
Protocol: A person with E. Coli bacteremia presents with a fever of 101° F. and a blood pressure of 70/50. […] The drug is stopped and they are begun on NO-derivatized L-NAME at 0.1 mg/kg/minute. […] Blood pressure rises to 100/80.

[6] = Working Example XIV: congestive heart failure and COPD patient; type: in vivo, human; conditions: 10 milligram per kilogram IV bolus and IV drip 0.5 milligrams per kilograms per minute
Excerpt: A patient with congestive heart failure and COPD presents acutely short of breath. They are intubated for respiratory failure. […] Their FEV1 is 0.8. The patient has a protracted hospital course and attempts to wean them from the ventilator are unsuccessful. They are then started on 10 milligram per kilogram IV bolus of L-NMMA and an intravenous drip at 0.5 milligrams per kilograms per minute.

[7] = Therapeutic use of NO-derivatized L-NAME variant; type: in vivo; conditions: nitrite ester variant
Excerpt: The invention is explained and illustrated by the following background examples and working examples. In the examples the NO-derivatized LNAME is the compound of formula (I) where R^3 is CH3 and R^1 is --(CH2)2 --ONO2. This compound is made by starting with N^ω -nitro-α-(2-hydroxyethyl)-L-arginine made as described above, forming the tert-butyloxycarbonyl derivative, dissolving in methanol, adding […], using non-aqueous trifluoroacetic acid to remove the protecting group and converting to the nitrate ester.

[8] = tested on: Rabbit aortic rings; assay: Acetylcholine-induced (EDRF) relaxation of aortic rings; conditions: Oryctolagus cuniculus; L-NAME (2 mM), acetylcholine, phenylephrine 1 μM; FIG. 3(a); read-out: inhibition of the relaxation response
Protocol: Rabbit aortic rings were treated with increasing concentrations of paraquat or L-NAME (2 mM) prior to initiating a constriction response with 1 μM phenylephrine (initial contraction).
(§1) New Zealand white male rabbits weighting 3-4 kg were anaesthetized with phenobarbital (30 mg/kg/iv). The descending thoracic aorta was isolated and placed in Krebs-Henseleit buffer (pH 7.4) and stored at 4° C. until used. The vessels were cut into 5 mm rings and submerged in 25 ml double jacketed tissue baths containing Krebs-Henseleit buffer bubbled with 95% oxygen and 5% carbon dioxide at 37° C. Rings were hung on stainless steel stirrups connected to calibrated force transducers. Rings were equilibrated with 2 g resting tension for 1 hour before use and contracted with phenylephrine (1 μM). Rings were incubated with paraquat for 15 minutes before acetylcholine-induced or exogenous relaxations were performed.
Endothelial-derived relaxing factor (EDRF) responses were initiated by addition of acetylcholine.

[9] = Working Example IX: breast cancer patient with adriamycin toxicity; type: in vivo, human
Excerpt: A person with metastatic breast cancer receives adriamycin in the standard regimen. […] They are begun on the nitric oxide synthase inhibitor L-NAME 0.5 milligrams per kilogram per minute and their systolic blood pressure is then titrated to 100-120 mm Hg. Over the following two weeks, their ejection fraction improves to 50% and the drug is stopped.

[10] = Working Example I: patient exposed to paraquat; type: in vivo, human; conditions: L-NAME IV 0.1 mg per kilogram per minute
Protocol: A person presents complaining of shortness of breath after working with paraquat. […] An intravenous line is inserted and the patient is started on IV infusion of 0.1 mg per kilogram per minute L-NAME. […] Over the following two days they are weaned off L-NAME.

[11] = Working Example III: stroke patient; type: in vivo, human
Excerpt: A person presents with confusion and weakness in the left arm. […] The L-NAME is stopped and the patient is given an NO derivatized L-NAME compound at 0.1 milligram per kilogram per minute IV which lowers the blood pressure to 170/100.

[12] = tested on: breast cancer; assay: Working Examples XI and XII: breast cancer patient; type: in vivo, human
Protocol: A person presents with breast cancer and is treated with standard regimen including adriamycin. […] They are given an infusion of a temperature-sensitive liposome encapsulated nitric oxide synthase, which is released in to the tumor by local heat (40-42° centigrate).
The adriamycin infusion in Example X after liposome encapsulated nitric oxide synthase treatment is replaced by 2 mg per day of diquat for six days.

[13] = tested on: RAW-264.7 monocyte macrophage cells; assay: LDH release from macrophages (cytotoxicity); type: cell-based; conditions: conclusion of Background Example 4
Protocol: The RAW-264.7 monocyte macrophage cells line (TIB-71) was purchased from the American Type Culture Collection (Manassas, Va.). The cells were grown in T-75 flasks containing DMEM (Gibco-BRL, Grand Island, N.Y.) supplemented with 1 mM pyruvate, 4.5 g/L glucose and […] fetal bovine serum Macrophages were plated at 2.0×10^4 cells/well in 24-well plates and experiments were performed when cells were near confluence. Macrophages were immunostimulated with 50 ng/ml lipopolysaccharide (LPS) from E. coli serotype 0111:B4 (Signia, St. Louis, Mo.) and 50 U/ml recombinant mouse interferon gamma (INF-γ, R&D Systems, Minneapolis,Minn.). Macrophages were used between passages 2-8. Cell cultures were kept in a 37° C. incubator with air and 5% carbon dioxide.
NOS2 was induced in RAW cells using a mixture of interferon-γ and lipopolysaccharide (LPS) referred to as "cytomix." Unstimulated (basal) and activated (cytomix) macrophages were treated with 0.1 mM paraquat or not treated with paraquat and cytotoxicity and NO production were assessed at 24 hours.
Cell injury was assessed by measuring LDH release.
To further exclude the role of peroxynitrite, macrophages were treated with increasing concentrations of the NO-donor, DETA NONOate in the presence of 0.1 mM paraquat. Macrophage cytotoxicity and NO release were assessed 24 hours after treatments. Cell injury was assessed by measuring LDH release.

[14] = tested on: Rabbit aortic rings; assay: Exogenous NO-induced relaxation of aortic rings; conditions: 2 mM paraquat, phenylephrine 1 μM; FIG. 3(b)
Protocol: as §1
In another case, rabbit aortic rings were constricted with 1 μM phenylephrine (initial contraction) and relaxed with increasing concentration of NO in the presence or absence of 2 mM paraquat. The results are shown in FIG. 3(b) where relaxations are expressed as a percent of the initial phenylephrine-induced contraction.

[15] = 0.1 milligram per kilogram per minute IV
[16] = 0.1 mg/kg/minute, after L-NMMA stopped

T1 sequence (P29476 whole entry): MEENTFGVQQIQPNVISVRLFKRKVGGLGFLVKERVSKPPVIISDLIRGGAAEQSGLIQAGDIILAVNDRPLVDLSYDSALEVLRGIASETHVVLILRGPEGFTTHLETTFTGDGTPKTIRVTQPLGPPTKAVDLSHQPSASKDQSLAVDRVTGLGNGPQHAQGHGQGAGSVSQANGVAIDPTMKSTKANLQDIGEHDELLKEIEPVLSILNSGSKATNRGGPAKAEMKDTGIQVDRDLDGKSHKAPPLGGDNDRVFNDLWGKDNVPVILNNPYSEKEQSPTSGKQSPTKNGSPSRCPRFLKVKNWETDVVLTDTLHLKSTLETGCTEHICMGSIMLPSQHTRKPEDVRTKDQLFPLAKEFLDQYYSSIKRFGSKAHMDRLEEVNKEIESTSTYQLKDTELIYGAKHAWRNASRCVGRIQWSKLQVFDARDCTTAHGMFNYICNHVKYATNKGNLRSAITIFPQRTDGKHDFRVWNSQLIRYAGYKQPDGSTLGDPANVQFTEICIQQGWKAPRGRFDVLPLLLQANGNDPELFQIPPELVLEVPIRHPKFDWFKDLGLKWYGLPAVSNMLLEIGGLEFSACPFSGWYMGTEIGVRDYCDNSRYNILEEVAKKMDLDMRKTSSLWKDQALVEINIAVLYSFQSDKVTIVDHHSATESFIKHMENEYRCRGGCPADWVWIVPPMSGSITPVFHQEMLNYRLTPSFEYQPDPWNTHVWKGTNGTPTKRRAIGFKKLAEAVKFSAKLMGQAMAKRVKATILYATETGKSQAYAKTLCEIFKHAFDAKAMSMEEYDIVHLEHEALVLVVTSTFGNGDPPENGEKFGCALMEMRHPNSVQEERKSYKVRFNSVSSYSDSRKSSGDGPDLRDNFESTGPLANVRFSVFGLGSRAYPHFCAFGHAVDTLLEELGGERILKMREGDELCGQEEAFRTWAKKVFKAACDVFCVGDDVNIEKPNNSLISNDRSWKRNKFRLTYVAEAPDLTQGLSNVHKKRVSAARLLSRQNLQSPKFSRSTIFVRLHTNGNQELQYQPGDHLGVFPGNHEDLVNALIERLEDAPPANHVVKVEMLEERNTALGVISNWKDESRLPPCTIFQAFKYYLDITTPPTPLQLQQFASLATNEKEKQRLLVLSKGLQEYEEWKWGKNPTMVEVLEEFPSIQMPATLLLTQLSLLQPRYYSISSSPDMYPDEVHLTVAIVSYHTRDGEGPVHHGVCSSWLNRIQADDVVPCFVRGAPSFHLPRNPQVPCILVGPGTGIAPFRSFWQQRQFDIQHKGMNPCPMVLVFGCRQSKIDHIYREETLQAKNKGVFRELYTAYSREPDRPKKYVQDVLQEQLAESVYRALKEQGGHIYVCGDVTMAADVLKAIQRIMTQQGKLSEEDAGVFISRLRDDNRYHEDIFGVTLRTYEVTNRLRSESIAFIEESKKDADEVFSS

Cc1ccc2c(=O)c3cccc(CC(=O)O)c3oc2c1C [5,6 MEXAA, 5,6 dimethylxanthemone-4-acetic acid]
nitric oxide synthase expression in the tumor on biopsy [1]: increase in nitric oxide synthase expression in the tumor

CNC(=N)NCCC[C@H](N)C(=O)O [L-NMMA, L-N-methylarginine]
protection from paraquat toxicity (LDH release) [2]: not L-NMMA, produced a dose-dependent protection from paraquat toxicity | effect on paraquat-stimulated NADPH oxidation [3]: partially blocked paraquat-induced NADPH oxidation | effect on basal NADPH oxidation [3]: small increase in basal NADPH oxidation | improvement / consciousness [4]: without improvement | pulmonary hypertension and cardiac output ([5]; L-NMMA infusion 10 mg/kg/hr.): profound pulmonary hypertension and a fall in cardiac output | weaning from the ventilator [6]: weaned from the ventilator over the following day

COC(=O)[C@@](N)(CCCNC(=N)N[N+](=O)[O-])CCON=O
therapeutic results [7]: Therapeutic results are also obtained

COC(=O)[C@@H](N)CCCNC(=N)N[N+](=O)[O-] [L-NAME, L-nitroarginine, methyl ester]
inhibition at 2000 µM [8]: > 90% | protection from paraquat toxicity (LDH release) [2]: dose-dependent protection from paraquat toxicity | ejection fraction on L-NAME ([9]; 0.5 milligrams per kilogram per minute, two weeks, from 35%): 50% | symptoms ([10]; over the day): symptoms improve over the day | arteriolar PO2 ([10]; increases from 60, over the day): 85 mm Hg | effect on paraquat-stimulated NADPH oxidation [3]: completely inhibited paraquat-stimulated NADPH oxidation | effect on basal NADPH oxidation [3]: little effect on basal NADPH oxidation | improvement / consciousness [4]: regains consciousness | symptoms of stroke [11, 15]: symptoms do not improve | blood pressure during L-NAME ([11]; L-NAME 0.1 milligram per kilogram per minute IV): 220/110

COc1cccc2c1C(=O)c1c(O)c3c(c(O)c1C2=O)C[C@@](O)(C(=O)CO)C[C@@H]3O[C@H]1C[C@H](N)[C@H](O)[C@H](C)O1 [adriamycin]
adverse effect of adriamycin ([9]; standard regimen): light sensitivity and shortness of breath | ejection fraction after adriamycin ([9]; standard regimen, echocardiogram): 35% | tumor regression ([12]; adriamycin after temperature-sensitive liposome encapsulated nitric oxide synthase released by local heat, six cycles): the tumor is shown to regress after six cycles of therapy | tumor response to adriamycin alone ([12]; standard regimen including adriamycin): The tumor fails to respond

COC(=O)[C@@](N)(CCCNC(=N)N[N+](=O)[O-])CCO[N+](=O)[O-] [NO-derivatized L-NAME]
symptoms of stroke [11, 15]: symptoms of confusion abate and motion returns to the arm | blood pressure after switch to NO derivatized L-NAME ([11]; 0.1 milligram per kilogram per minute IV, from 220/110): 170/100 | cardiac output [5, 16]: Cardiac output normalizes | pulmonary pressure [5, 16]: Pulmonary pressure normalizes | blood pressure ([5]; 0.1 mg/kg/minute, 70/50 at presentation): 100/80

c1cc[n+]2c(c1)-c1cccc[n+]1CC2 [diquat]
tumor regression ([12]; diquat 2 mg per day for six days after liposome encapsulated nitric oxide synthase): The tumor is shown to regress

nitric oxide [NO]
cell killing / amelioration of toxicity, conclusion [13]: toxicity can be ameliorated by putting NO back into the system | effect on exogenously added NO-induced relaxation [14]: NO still works in a system where NO is inhibited and superoxide is generated
